Assay results taken from PMC3545186 (Biochemical Pharmacology, 2013).
Where “and” joins values, the source holds several entries; their conditions need not be identical. Identical values can stand only once. Like-named read-outs stand apart in the source and are kept apart here. Numbered stars: 1 amine (or outer) side, 2 acyl side, 3 side chain; on linkers, the order of the positions; unused ones are H or OH. Bridge positions count the residues as written; N and C are the ends. Square brackets hold non-standard residues; d marks the D form. Peptide text beside a SMILES is read from it. I, II: the chains in the order shown. Actinocin(9to1) = Cc1c2oc3c(C)ccc(C(=O)[*:1])c3nc-2c(C(=O)[*:2])c(N)c1=O; NMeV = CN[C@H](C(=O)O)C(C)C; Sar = CNCC(=O)O

What was measured:
MDCKII-WT cells [1] = experiment: Growth inhibition; format: cell-based, canine
MDCKII-ABCC1 cells [2] = experiment: Growth inhibition; format: cell-based, canine; conditions: MDCKII-ABCC1, MK571 25 μM
MDCKII-ABCC2 cells [3] = experiment: Growth inhibition; format: cell-based, canine; conditions: MDCKII-ABCC2, MK571 25 μM, p = 0.23
ABCG2 (BCRP) = experiment: Growth inhibition; format: cell-based, canine; conditions: dog, MDCKII cells transfected with human ABCG2 (BCRP)
MDCKII-ABCG2 cells [4] = experiment: Growth inhibition; format: cell-based, canine; conditions: MDCKII-ABCG2, Act D alone or with KO143, p = 0.74
MDCKII-WT cells [5] = experiment: Intracellular accumulation of Act D; format: in vitro ADME, canine; conditions: 0.01 μM Act D, 12 h
MDCKII-ABCB1 cells [6] = experiment: Intracellular accumulation of Act D; format: in vitro ADME, canine
MDCKII-ABCC1 cells [7] = experiment: Intracellular accumulation of Act D; format: in vitro ADME, canine
MDCKII-ABCC2 cells [8] = experiment: Intracellular accumulation of Act D; format: in vitro ADME, canine
MDCKII-ABCG2 cells [9] = experiment: Intracellular accumulation of Act D; format: in vitro ADME, canine
MDCKII-ABCB1 cells [10] = experiment: Cellular efflux of Act D after 4 h uptake; format: in vitro ADME, canine; conditions: MDCKII-ABCB1, after 4 h with 0.1 μM Act D
MDCKII-ABCC1 cells [11] = experiment: Cellular efflux of Act D after 4 h uptake; format: in vitro ADME, canine; conditions: MDCKII-ABCC1, after 4 h with 0.1 μM Act D
MDCKII-ABCC2 cells [12] = experiment: Cellular efflux of Act D after 4 h uptake; format: in vitro ADME, canine
MDCKII-ABCG2 cells [13] = experiment: Cellular efflux of Act D after 4 h uptake; format: in vitro ADME, canine; conditions: MDCKII-ABCG2, not statistically significant
MDCKII-WT cells [14] = experiment: Fluorescence competition assay with ABCB1 substrate doxorubicin; format: cell-based, canine; conditions: 1 h pre-incubation, doxorubicin 10 μM 1 h
MDCKII-ABCB1 cells [15] = experiment: as above; format: cell-based, canine; conditions: MDCKII-ABCB1, 1 h pre-incubation, doxorubicin 10 μM 1 h
[16] = format: in vivo, mice; conditions: for Brain peak area / Kidney concentration / Liver concentration: per gram of tissue
[17] = Act D treatment; cited from earlier work
[18] = paediatric patient population; cited from earlier work
ABCB1 (MDR1) = experiment: Growth inhibition; conditions: dog, 72 h
MDCKII-ABCB1 cells [19] = experiment: Growth inhibition
[20] = Abcb1a/1b−/− mice, 0.5 mg/kg i.v.
[21] = Abcb1a/1b−/− mice, 0.25 h, 0.5 mg/kg i.v.
[22] = Abcb1a/1b−/− mice, 0.5 h, 0.5 mg/kg i.v.
[23] = Abcb1a/1b−/− mice, 2 h, 0.5 mg/kg i.v.
[24] = Abcb1a/1b−/− mice, 6 h, 0.5 mg/kg i.v.
[25] = Abcc2−/− mice, 0.25 h, 0.5 mg/kg i.v.
[26] = Abcc2−/− mice, 0.5 h, 0.5 mg/kg i.v.
[27] = Abcc2−/− mice, 2 h, 0.5 mg/kg i.v.
[28] = Abcc2−/− mice, 6 h, 0.5 mg/kg i.v.
[29] = WT mice, 0.25 h, 0.5 mg/kg i.v.

intracellular accumulation of Act D (MDCKII-WT cells [5]): 0.98 nM
intracellular accumulation of Act D (MDCKII-ABCB1 cells [6]; MDCKII-ABCB1, 0.01 μM Act D, 12 h): 0.1 nM
increase in intracellular Act D with verapamil (MDCKII-ABCB1 cells [6]; MDCKII-ABCB1, 10 μM verapamil, 0.1 μM Act D, 4 h): 7.9 fold
lower accumulation of Act D compared to parental cell line (MDCKII-ABCB1 cells [6]; MDCKII-ABCB1 vs MDCKII-WT, 0.01 μM Act D, 12 h): 9.8 fold
increased accumulation with MK571 compared to absence of inhibitor (MDCKII-ABCC1 cells [7]; MDCKII-ABCC1, not statistically significant): 1.2 fold
lower accumulation of Act D compared to parental cell line (MDCKII-ABCC1 cells [7]; MDCKII-ABCC1 vs MDCKII-WT, 12 h): 2.5 fold and 2.45 fold
increased accumulation with MK571 compared to absence of inhibitor (MDCKII-ABCC2 cells [8]; MDCKII-ABCC2, not statistically significant): 1.4 fold
lower accumulation of Act D compared to parental cell line (MDCKII-ABCC2 cells [8]; MDCKII-ABCC2 vs MDCKII-WT, 12 h): 3.5 fold
Act D accumulation compared to WT cells (MDCKII-ABCG2 cells [9]; MDCKII-ABCG2): not different to WT cells
effect of co-incubation with KO143 on Act D accumulation (MDCKII-ABCG2 cells [9]; MDCKII-ABCG2, data not shown): no effect
reduction in intracellular Act D over 2 h after drug removal (MDCKII-ABCB1 cells [10]): 5.5 fold
reduction in intracellular Act D over 2 h after drug removal (MDCKII-ABCC1 cells [11]): 1.9 fold
reduction in intracellular Act D over 2 h after drug removal (MDCKII-ABCC2 cells [12]; MDCKII-ABCC2, after 4 h with 0.1 μM Act D): 2.1 fold
reduction in intracellular Act D over 1 h after drug removal (MDCKII-ABCC2 cells [12]; MDCKII-ABCC2, compared to parental cell line): 1.8 fold
higher intracellular Act D after 2 h (MDCKII-ABCG2 cells [13]): 1.5 fold
higher brain AUC0–6 h in Abcb1a/1b−/− mice compared to WT ([16]; 0.5 mg/kg i.v.): 2.3 fold
higher brain AUC0–6 h in Abcc2−/− mice compared to WT ([16]; 0.5 mg/kg i.v.): 1.3 fold
Brain AUC0–6 h (peak area) [16, 20]: 6802 pa/g h
Brain Cmax (peak area) [16, 20]: 1420 ± 521 pa
Kidney AUC0–6 h [16, 20]: 35,381 μg/L h
Kidney AUC0–∞ [16, 20]: 46,701 μg/L h
Kidney Cmax [16, 20]: 13,207 ± 1025 μg/L
Liver AUC0–6 h [16, 20]: 4616 ng·h/mL
Liver AUC0–∞ [16, 20]: 6594 ng·h/mL
Liver Cmax [16, 20]: 2323 ± 239 ng/mL
Brain peak area [16, 21]: 1134 ± 635 pa
Kidney concentration [16, 21]: 13,207 ± 1025 μg/L
Liver concentration [16, 21]: 2323 ± 239 µg/L
Brain peak area [16, 22]: 1420 ± 521 pa
Kidney concentration [16, 22]: 13,163 ± 2521 μg/L
Liver concentration [16, 22]: 1367 ± 133 µg/L
Brain peak area [16, 23]: 912.7 ± 461 pa
Kidney concentration [16, 23]: 5327 ± 1257 µg/L
Liver concentration [16, 23]: 737 ± 172 µg/L
Brain peak area [16, 24]: 1383 ± 439 pa
Kidney concentration [16, 24]: 2957 ± 872 µg/L
Liver concentration [16, 24]: 407 ± 9 µg/L
Brain AUC0–6 h (peak area) ([16]; Abcc2−/− mice, 0.5 mg/kg i.v.): 3785 pa/g h
Brain Cmax (peak area) ([16]; Abcc2−/− mice, 0.5 mg/kg i.v.): 1039 ± 181 pa
Kidney AUC0–6 h ([16]; Abcc2−/− mice, 0.5 mg/kg i.v.): 33,079 μg/L h
Kidney AUC0–∞ ([16]; Abcc2−/− mice, 0.5 mg/kg i.v.): 48,799 μg/L h
Kidney Cmax ([16]; Abcc2−/− mice, 0.5 mg/kg i.v.): 13,107 ± 2318 μg/L
Liver AUC0–6 h ([16]; Abcc2−/− mice, 0.5 mg/kg i.v.): 4445 ng·h/mL
Liver AUC0–∞ ([16]; Abcc2−/− mice, 0.5 mg/kg i.v.): 5516 ng·h/mL
Liver Cmax ([16]; Abcc2−/− mice, 0.5 mg/kg i.v.): 1540 ± 356 ng/mL
Brain peak area [16, 25]: 972 ± 455 pa
Kidney concentration [16, 25]: 13,107 ± 2318 μg/L
Liver concentration [16, 25]: 1317 ± 302 µg/L
Brain peak area [16, 26]: 1039 ± 181 pa
Kidney concentration [16, 26]: 10,593 ± 944 μg/L
Liver concentration [16, 26]: 1540 ± 356 µg/L
Brain peak area [16, 27]: 424.3 ± 120 pa
Kidney concentration [16, 27]: 4987 ± 161 µg/L
Liver concentration [16, 27]: 787 ± 99 µg/L
Brain peak area [16, 28]: 733 ± 470 pa
Kidney concentration [16, 28]: 3410 ± 527 µg/L
Liver concentration [16, 28]: 303 ± 128 µg/L
Brain AUC0–6 h (peak area) ([16]; WT mice, 0.5 mg/kg i.v.): 2943 pa/g h
Brain Cmax (peak area) ([16]; WT mice, 0.5 mg/kg i.v.): 1071 ± 217 pa
Kidney AUC0–6 h ([16]; WT mice, 0.5 mg/kg i.v.): 29,552 μg/L h
Kidney AUC0–∞ ([16]; WT mice, 0.5 mg/kg i.v.): 35,754 μg/L h
Kidney Cmax ([16]; WT mice, 0.5 mg/kg i.v.): 13,323 ± 3960 μg/L
Liver AUC0–6 h ([16]; WT mice, 0.5 mg/kg i.v.): 4473 ng·h/mL
Liver AUC0–∞ ([16]; WT mice, 0.5 mg/kg i.v.): 5387 ng·h/mL
Liver Cmax ([16]; WT mice, 0.5 mg/kg i.v.): 1810 ± 155 ng/mL
Brain peak area [16, 29]: 1071 ± 217 pa
Kidney concentration [16, 29]: 13,323 ± 3960 μg/L
Liver concentration [16, 29]: 1810 ± 155 µg/L
Brain peak area ([16]; WT mice, 0.5 h, 0.5 mg/kg i.v.): 775.3 ± 127 pa
Kidney concentration ([16]; WT mice, 0.5 h, 0.5 mg/kg i.v.): 10,713 ± 2498 μg/L
Liver concentration ([16]; WT mice, 0.5 h, 0.5 mg/kg i.v.): 1593 ± 167 µg/L
Brain peak area ([16]; WT mice, 2 h, 0.5 mg/kg i.v.): 501 ± 28.9 pa
Kidney concentration ([16]; WT mice, 2 h, 0.5 mg/kg i.v.): 4693 ± 415 µg/L
Liver concentration ([16]; WT mice, 2 h, 0.5 mg/kg i.v.): 747 ± 165 µg/L
Brain peak area ([16]; WT mice, 6 h, 0.5 mg/kg i.v.): 309 ± 156 pa
Kidney concentration ([16]; WT mice, 6 h, 0.5 mg/kg i.v.): 1970 ± 150 µg/L
Liver concentration ([16]; WT mice, 6 h, 0.5 mg/kg i.v.): 287 ± 40 µg/L
Act D accumulation over 6 h in the kidneys higher than the liver ([16]; irrespective of transporter knockout genotype): 6.6- to 7.7 fold
SMILES: Cc1c2oc3c(C)ccc(C(=O)N[C@@H]4C(=O)N[C@H](C(C)C)C(=O)N5CCC[C@H]5C(=O)N(C)CC(=O)N(C)[C@@H](C(C)C)C(=O)O[C@@H]4C)c3nc-2c(C(=O)N[C@@H]2C(=O)N[C@H](C(C)C)C(=O)N3CCC[C@H]3C(=O)N(C)CC(=O)N(C)[C@@H](C(C)C)C(=O)O[C@@H]2C)c(N)c1=O [Act D, actinomycin D] (I: T[dV]P[Sar][NMeV] / II: T[dV]P[Sar][NMeV]; ester I:1-I:C, II:1-II:C; linker I:N-II:N via Actinocin(9to1))
increase in sensitivity to Act D with MK571 (MDCKII-WT cells [1]; MK571 25 μM): 3 fold
reduction in GI50 with verapamil (MDCKII-WT cells [1]; verapamil 1 μM, 72 h): 3 fold
increase in sensitivity to Act D with MK571 (MDCKII-ABCC1 cells [2]): greater than 4 fold
effect of MK571 on sensitivity to Act D (MDCKII-ABCC2 cells [3]): no effect
GI50 at 72 h (ABCG2 (BCRP)): 14 nM
difference in sensitivity vs parental cell line (MDCKII-ABCG2 cells [4]): No difference in sensitivity
Act D concentration at which intracellular doxorubicin levels plateaued (MDCKII-WT cells [14]): 0.1 to 1 µM
Act D concentration required to maximally inhibit doxorubicin efflux (MDCKII-ABCB1 cells [15]): 1 to 25 µM
incidence of liver toxicities [17]: 1.7–13.5 % of cases
range in AUC0–6 h between patients [18]: > 4 fold
GI50 at 72 h (ABCB1 (MDR1); GI50, MDCKII-ABCB1, + verapamil (1 μM)): 129 nM
GI50 at 72 h (ABCB1 (MDR1); GI50, MDCKII-ABCB1, Act D alone): 745 nM
decrease in GI50 with verapamil (MDCKII-ABCB1 cells [19]; MDCKII-ABCB1, verapamil 1 μM, 72 h): 6 fold
difference in GI50 between MDCKII-WT and MDCKII-ABCB1 (MDCKII-ABCB1 cells [19]; MDCKII-ABCB1 less sensitive than parental): 59 fold
